In publication PMC7127791 (Bioorganic & Medicinal Chemistry Letters, 2016):
“Also recorded” adds a separate entry of the source.

Legend:
Para-influenza-3 virus = assay: organism not typed; assay type: cell-based, Parainfluenza-3 virus; conditions: Vero, read-out: Antiviral EC50 Para-influenza-3 virus
Reovirus-1 = assay: organism not typed; assay type: cell-based; conditions: Vero, read-out: Antiviral EC50 Reovirus-1
[1] = system: broad and diverse panel of DNA and RNA viruses; assay type: cell-based
HEL cells = assay: Cytotoxicity; conditions: human embryonic lung fibroblast cells; microscopy
Vero cells = assay: Cytotoxicity; conditions: minimal cytotoxic concentration by microscopical inspection
HeLa cells = assay: Cytotoxicity; conditions: HeLa cervix carcinoma cells; microscopy
MDCK cells = assay: Cytotoxicity; conditions: Madin-Darby canine kidney cells; microscopy
Punta Toro virus [2] = assay type: cell-based
[3] = system: Rift Valley fever virus (MP-12 strain); assay type: cell-based
Punta Toro virus [4] = assay type: cell-based; remark: listed apart in the source
other cell lines tested = assay: Cytotoxicity in the other mammalian cell lines tested; conditions: 100 μM compound concentration; cell lines other than Vero, HEL and MT4
varicella zoster virus = conditions: human

| Compound | EC50 (Para-influenza-3 virus) | EC50 (Reovirus-1) | Cytotoxicity MCC HEL (HEL cells) | Cytotoxicity MCC (Vero cells) | Cytotoxicity MCC HeLa (HeLa cells) | Cytotoxicity MCC MDCK (MDCK cells) | other results |
| --- | --- | --- | --- | --- | --- | --- | --- |
| CCOC(=O)C1=C(C)NC(=O)NC1c1ccccc1Cl (centres unmarked) [Compound 4b, Ethyl 4-(2-chlorophenyl)-6-methyl-2-oxo-1,2,3,4-tetrahydropyrimidine-5-carboxylate] | > 100 µM | > 100 µM | >100 µM | >100 µM | >100 µM | >100 µM | antiviral activity against the virus panel (in words) [1]: no antiviral activity |
| CCOC(=O)C1=C(C)NC(=O)NC1c1ccc(N(C)C)cc1 (centres unmarked) [Compound 4g, Ethyl 4-[4-(dimethylamino)phenyl]-6-methyl-2-oxo-1,2,3,4-tetrahydropyrimidine-5-carboxylate] | – | – | >100 µM | 100 µM | >100 µM | >100 µM | – |
| CCOC(=O)C1=C(C)NC(=O)NC1C (centres unmarked) [Compound 4k, Ethyl 4,6-dimethyl-2-oxo-1,2,3,4-tetrahydropyrimidine-5-carboxylate] | – | – | – | – | >100 µM | >100 µM | – |
| CCOC(=O)C1=C(C)NC(=O)NC1 [Compound 4j, Ethyl 6-methyl-2-oxo-1,2,3,4-tetrahydropyrimidine-5-carboxylate] | – | – | – | – | >100 µM | >100 µM | – |
| CCCCCCCCCCCC1NC(=O)NC(C)=C1C(=O)OCC (centres unmarked) [Compound 4m, Ethyl 6-methyl-2-oxo-4-undecyl-1,2,3,4-tetrahydro-5-pyrimidinecarboxylate] | > 100 µM | > 100 µM | 100 µM | – | >100 µM | >100 µM | activity against Punta Toro virus (in words) (Punta Toro virus [2]): selective and potent inhibitor; also recorded: selective and potent antiviral activity; also recorded: potent and selective inhibitor; times more potent than dextran sulphate (DS-10000) (Punta Toro virus [2]): approximately 7 times; times more potent than mycophenolic acid (Punta Toro virus [2]): approximately 7 times; activity against Rift Valley fever virus (in words) [3]: negligible; reduction in RVFV-induced CPE [3]: about 40%; 50% inhibition of RVFV at 100 μM (in words) ([3]; 100 μM): unable to achieve 50% inhibition; activity against PTV in HeLa cells (in words) (Punta Toro virus [4]): inactive; antiviral activity against the virus panel (in words) [1]: did not have antiviral activity against all other viruses tested; toxicity in the other cell lines tested (in words) (other cell lines tested): no toxicity |
| CCOC(=O)C1=C(C)NC(=O)NC1CC(C)C (centres unmarked) [Compound 4l, Ethyl 6-methyl-4-(2-methylpropyl)-2-oxo-1,2,3,4-tetrahydropyrimidine-5-carboxylate] | – | – | >100 µM | >100 µM | >100 µM | >100 µM | – |
| CCOC(=O)C1=C(C)NC(=O)NC1c1cccs1 (centres unmarked) [Compound 4i, Ethyl 6-methyl-2-oxo-4-(thiophen-2-yl)-1,2,3,4-tetrahydropyrimidine-5-carboxylate] | – | – | – | – | >100 µM | >100 µM | – |
| CCOC(=O)C1C2NC(=O)NC1(C)Oc1ccccc12 (centres unmarked) [Compound 5, Ethyl 9-methyl-11-oxo-8-oxa-10,12-diazatricyclo[7.3.1.0^2,7]trideca-2,4,6-triene-13-carboxylate] | > 100 µM | > 100 µM | >100 µM | >100 µM | >100 µM | >100 µM | – |
| CCOC(=O)C1=C(C)NC(=O)NC1c1ccc(O)cc1 (centres unmarked) [Compound 4e, Ethyl 4-(4-hydroxyphenyl)-6-methyl-2-oxo-1,2,3,4-tetrahydropyrimidine-5-carboxylate] | > 100 µM | > 100 µM | >100 µM | >100 µM | >100 µM | >100 µM | – |
| NC(=O)c1ncn([C@@H]2O[C@H](CO)[C@@H](O)[C@H]2O)n1 [Ribavirin, reference compound] | – | > 250 µM | – | >250 µM | – | – | – |
| CCOC(=O)C1=C(C)NC(=O)NC1/C=C/c1ccccc1 (centres unmarked) [Compound 4h, Ethyl 6-methyl-2-oxo-4-[(E)-2-phenylethenyl]-1,2,3,4-tetrahydropyrimidine-5-carboxylate] | > 100 µM | > 100 µM | >100 µM | 100 µM | ⩾100 μM | >100 µM | MCC reported with the varicella zoster virus EC50 (varicella zoster virus): 100 µM |
